Like-named read-outs stand apart in the source and are kept apart here.
Columns and labels:
[1] = tested on: A549 lung carcinoma cells; experiment: MTT-reduction cell viability assay, dark and after LED irradiation; type: cell-based, Human; details: for PI (Phototoxic index), 405 nm: IC50 dark / IC50 at 405 nm; for PI (Phototoxic index), 470 nm: IC50 dark / IC50 at 470 nm
Procedure: Human lung carcinoma A549 cell line (from ATCC, Manassas, VA, USA) was cultured in high glucose Dubecco’s Modified Eagle’s Medium (DMEM) supplemented with 5% fetal bovine serum (FBS) as well as L-glutamine and penicillin/streptomycin at 37 °C in a humidified atmosphere of 95% air and 5% CO2.
Cell metabolic activity was analyzed by an MTT-reduction assay to assess the A549 cell sensitivity to the complexes. Thus, 10^5 cells(A549)/mL were seeded in flat-bottom 96-well plates (100 µL/well) in complete medium and allowed to attach for 24 h. A stock solution of the complexes was prepared in DMSO 0.1 M. Subsequent dilutions of the different stock solutions from the complexes using DMEM were prepared. 100 µL/well were added to the cells, in concentrations ranging from 0.2 to 50 µM. each concentration was performed by quadruplicate. After 5 h of incubation with the complexes, duplicates of each concentration were irradiated with an LED lamp upon 405 and 470 nm with a light dose of 6.5 and 15.1 J/m^2, respectively, for 10 min. Before irradiation, culture medium was replaced with fresh medium in order to avoid interference with non-internalized complexes. Cells were cultured for a further 19 h. 10 µL of MTT (5 mg ml^−^1 in PBS) were added to each well and then further 2 h incubation was allowed at 37 °C. Finally, after removing the culture medium, DMSO (100 µL/well) was added to dissolve the formazan crystals. Multiskan EX 96-well multiscanner autoreader (Thermo Fisher Scientific, Waltham, MA, USA) was used to determine the optical density at 550 nm and IC50 was calculated. Each experiment was repeated at least three independent analyses.

[2] = Distribution coefficient n-octanol/water, shake-flask method; type: physicochemical; details: pH = 7.4, n-octanol/phosphate buffered saline, 298 K
Procedure: The n-octanol-water coefficient of complexes 1–4 and L1 and L2 were determined using a shake-flask method. A mixture of buffered-saline distilled water (100 mL, phosphate buffer [PO4^3−] = 10 mM, [NaCl] = 0.15 M, pH 7.4) and n-octanol (100 mL) was shaken for 72 h to allow saturation of both phases. Approximately 0.5 mg of the complexes or ligands werw dissolved in 5 mL of the aqueous phase and 5 mL of the organic phase were added, mixing for 10 min. The resulting emulsion was centrifuged to separate the phases. The concentration of the compounds in each phase was determined using UV absorbance spectroscopy at 298 K. logP7.4 was defined as log{[compound(organic phase)]/[compound(aqueous phase)]}.

A549 cells [3] = experiment: Cell morphology by phase contrast (inverted) microscopy; type: cell-based, Human; details: A549, 10 to 20 µM, 20 h
Procedure: Alterations in cell morphology and behavior as a consequence of the exposition to ligands and complexes were analyzed using an inverted microscope (Figure 5). […] Oppositely, complexes 1–4 were able to modify cell aspect. All of them triggered cytoplasmic vesicle formation, which was more remarkable for compounds 3 and 4, containing the bzq orthometallated ligand. Moreover, even though cell division still took place in the presence of all of them, it became patently clear that they have cytotoxic properties, being more evident for complexes 1 and 2.
Figure 5 Phase contrast microscopy images of A549 cells treated with L1, L2 and 1–4 at concentrations between 10 and 20 µM for 20 h. Black arrows point to apoptotic cells. Little black triangles show examples of cells containing cytoplasmic vesicles.

A549 cells [4] = experiment: Cytotoxicity assay by flow cytometry, Annexin V-DY634 / 7-AAD double staining; type: cell-based, Human; details: A549, dark and irradiation at 470 nm
Procedure: Necrotic and apoptotic cell death was determined by measuring cell membrane permeabilization and phosphatidylserine exposure on cell surface in A549 cells, respectively. 10^5 cells/well were seeded in flat-bottom, 12-well plates (1 mL/well) in complete medium and left 12 h to attach to the plates. […] After 19 h, cells were trypsinized and thereafter resuspended in 50 μL of a mixture of DY634-conjugated Annexin V, Annexin-binding buffer (ABB; 140 mM NaCl, 2.5 mM CaCl2, 10 mM HEPES/NaOH pH 7.4) and 7-amino-actinomycin D (7-AAD). After incubation for further 15 min at rt in dark, cells were diluted to 300 μL with ABB. A total of 10,000 cells were acquired on a FACSCalibur^TM flow cytometer (BD Biosciences, San Jose, CA, USA) and cell death analysis was performed using Flowjo 7.6.1 (Becton Dickinson (BD), Franklin Lakes, NJ, USA), CellQuest Pro (BD Biosciences) and GraphPad Prism 8 (GraphPad Software, San Diego, CA, USA) softwares.

A549 cells [5] = experiment: Cell cycle analysis, propidium iodide flow cytometry; type: cell-based, Human; details: for Cell distribution G0-G1 / Cell distribution G2-M / Cell distribution S: 5 h + 19 h
Procedure: 4 × 105. […] Thereupon, cell culture was changed, and half of the experimental points were irradiated at 470 nm. After 19 h in culture, cells were trypsinized, washed twice with PBS, fixed with cold 70% ethanol (v/v) by vortexing and stored at −20 °C for at least 24 h. After that, cells were wash with cold PBS and stained with 500 μL of a solution of propidium iodide (PI) and RNase (Immunostep, Salamanca, Spain) for 20 min at rt in the dark. Finally, a total of 10,000 cells were acquired on a FACSCalibur^TM flow cytometer and data were analyzed using the aforementioned softwares.

A549 cells [6] = experiment: ROS production measurement with dihydroethidium (DHE) by flow cytometry; type: cell-based, Human; details: A549, IC50 to ¼ IC50, dark and irradiation at 470 nm for 10 min
Procedure: Cells were incubated with the complex for 5 h and subsequently half of the experimental points were irradiated at 470 nm after replacing culture medium. Upon 19 h, cells were trypsinized, resuspended in 100 μL of a mixture of PBS and 2 μM of the dihydroethidium (DHE) probe, incubated at 37 °C in the dark for 15 min and diluted to 300 μL with PBS. Lastly, a total of 10,000 events were acquired on a FACSCalibur^TM flow cytometer and data were analyzed using the aforementioned softwares

[7] = 5 h incubation, irradiation 10 min at 405 nm (6.5 J/m^2), further 19 h, read-out: IC50(λexc 405 nm)
[8] = 5 h incubation, irradiation 10 min at 470 nm (15.1 J/m^2), further 19 h, read-out: IC50(λexc 470 nm)
[9] = 24 h incubation, no irradiation, read-out: IC50 (DARK)
[10] = Homo sapiens, light or radiation study, 24 h incubation, no irradiation, read-out: IC50 (DARK)
[11] = A549, irradiation at 470 nm, 0.0975 μM (25% IC50)

Compound	IC50 [1, 7]	IC50 [1, 8]	IC50 [1, 9]	PI (Phototoxic index), 405 nm [1]	PI (Phototoxic index), 470 nm [1]	logP(Oct/W) [2]	Alterations in cell morphology (A549 cells [3])	IC50 [1, 10]	logP [2]	other results
[Cl-].c1ccc(-c2cccc[c]2[Ir+][c]2ccccc2-c2ccccn2)nc1.c1ccc(N(c2ccccn2)c2c3ccccc3cc3ccccc23)nc1 [Complex 1]	1160 ± 60 nM	180 ± 50 nM	13600 ± 80 nM	11.7	75.5	0.75				
[Cl-].c1ccc(N(c2ccccn2)c2c3ccccc3cc3ccccc23)nc1.c1cnc2c(c1)ccc1ccc[c]([Ir+][c]3cccc4ccc5cccnc5c34)c12 [Complex 3]	1350 ± 80 nM	400 ± 80 nM	18900 ± 120 nM	14.0	47.2	1.73				
c1ccc(N(c2ccccn2)c2c3ccccc3cc3ccccc23)nc1 [Complex L1]							apoptotic or necrotic cells were not detected	> 50000 nM	1.2	
c1ccc(N(c2ccccn2)c2c3ccccc3nc3ccccc23)nc1 [Complex L2]							apoptotic or necrotic cells were not detected	> 50000 nM	0.59	
[Ir(bzq)2(dpa-acr)]^+ [Complex 4]	> 5000 nM	390 ± 90 nM	43380 ± 140 nM			1.24				Cell death pathway (A549 cells [4]): triggers the apoptotic pathway; Cell distribution G0-G1 (A549 cells [5]; A549, dark, 10.9 μM (25% IC50)): 72.4%; Cell distribution G2-M (A549 cells [5]; A549, dark, 10.9 μM (25% IC50)): 13.5%; Cell distribution S (A549 cells [5]; A549, dark, 10.9 μM (25% IC50)): 14.1%; Cell distribution G0-G1 (A549 cells [5]; [11]): 73.7%; Cell distribution G2-M (A549 cells [5]; [11]): 14.0%; Cell distribution S (A549 cells [5]; [11]): 12.3%; Cell cycle arrest (A549 cells [5]; A549, ¼ IC50, dark and irradiation at 470 nm): not capable of stopping the cell cycle at any of its phases; ROS generation (DHE) (A549 cells [6]): concentration-dependent ROS generation
